Measurements taken from patent publication US5187082A, “Process for producing A83850 antibiotics” (Eli Lilly and Company, priority 1990, dated 1993).

Test system: Culture A83850 (Amycolatopsis albus NRRL 18532)
Assay: Resistance of culture A83850 to antibiotics, sensitivity discs on seeded ISP No. 2 agar plates
Format: cell-based
Conditions: disc content printed per antibiotic
Method: Resistance to antibiotics was measured by padding antibiotic sensitivity discs onto the surface of seeded ISP No. 2 agar plates.

Row | Compound | Resistance or inhibition of culture A83850 by antibiotic disc
1 | CO[C@H]1C[C@H](O[C@H]2[C@H](C)[C@@H](O[C@@H]3O[C@H](C)C[C@H](N(C)C)[C@H]3O)[C@@H](C)C[C@@]3(CO3)C(=O)[C@H](C)[C@@H](O)[C@@H](C)[C@@H](C)OC(=O)[C@@H]2C)O[C@@H](C)[C@@H]1O [oleandomycin] | resistant
2 | CC1(C)S[C@@H]2[C@H](NC(=O)Cc3ccccc3)C(=O)N2[C@H]1C(=O)O [penicillin] | inhibited
3 | CO[C@H]1/C=C/O[C@@]2(C)Oc3c(C)c(O)c4c(O)c(c(/C=N/N5CCN(C)CC5)c(O)c4c3C2=O)NC(=O)/C(C)=C\C=C\[C@H](C)[C@H](O)[C@@H](C)[C@@H](O)[C@@H](C)[C@H](OC(C)=O)[C@@H]1C [rifampin] | resistant
4 | [H]/N=C(/N)N[C@H]1[C@H](O)[C@@H](O)[C@H](O[C@@H]2O[C@@H](C)[C@](O)(C=O)[C@H]2O[C@@H]2O[C@@H](CO)[C@H](O)[C@@H](O)[C@@H]2NC)[C@@H](N/C(N)=N\[H])[C@@H]1O [streptomycin] | inhibited
5 | CN(C)[C@@H]1C(O)=C(C(N)=O)C(=O)[C@@]2(O)C(O)=C3C(=O)c4c(O)cccc4[C@@](C)(O)[C@H]3C[C@@H]12 [tetracycline] | resistant
6 | NC[C@H]1O[C@H](O[C@H]2[C@H](O)[C@@H](O[C@H]3O[C@H](CO)[C@@H](O)[C@H](N)[C@H]3O)[C@H](N)C[C@@H]2N)[C@H](N)C[C@@H]1O [tobramycin] | inhibited
7 | gentamicin | inhibited
8 | neomycin | resistant
